These results are taken from patent US9173836B2, “Pharmaceutical preparations for treatments of diseases and disorders of the breast” (FemmeParma Holding Company, Inc., priority 2003, dated 2015).

What is called Papp is a coefficient for how fast a substance crosses the barrier. A lower Papp goes with slow passage.

Where two headings read alike, the source gives them in different places. Marks after values point to notes of the source that are not given here.

The subject of series [1] is women treated for cyclical mastalgia. The settings on record: in vivo; cited from earlier work.
The nature of another series: in vitro. Particulars: for recovery at 48 h, 100 µM: % Recovery. As for the experimental part:
Dermatomed human abdominal skin was obtained from Asterand Inc. (Detroit, Mich.). The donor was a person. […] After thawing at room temperature, the skin was soaked in saline for 30 minutes, and then cut to the appropriate size (approximately 4 cm^2) necessary. Excess moisture and saline were wiped off. The tissue was immediately transferred to the Franz-cell diffusion chamber and clamped between the donor and receiver chambers. The exposed surface area of the Franz-cell diffusion chamber was 1.77 cm^2. The receiver compartment was filled with 8 mL KRB buffer. The reservoir also contained a stirring bar to mix the reservoir contents. […] The temperature was set to maintain the tissue surface at 32° C.
Samples (1.0 mL) were taken from the receiver compartment at 0, 2, 4, 8, 24, and 48 hours for formulation assays and the control assay. After taking samples, an equal volume of receiver KRB buffer was added back to replace the buffer removed. For the control assay, 200 μl of dosing solution (prior to 0 hours) was taken from the container and 200 μl of 0 and 48 hours samples were taken from the donor side of the chamber.
The liquid chromatography phase was carried out using a Keystone Hypersil BDC C12 30×2.0 mm i.d., 3 μm, with guard column and 25 mM ammonium formate buffer (pH 3.5), where Aqueous Reservoir (A) was 90% water, 10% buffer, and Organic Reservoir (B) was 90% acetonitrile, 10% buffer. A flow rate of 300 μL/minute was applied to a gradient program of 0.0 min: 100% A, 0% B; 1.5 min: 0% A, 100% B; 2.0 min: 0% A, 100% B; 2.1 min: 100% A, 0% B; 3.5 min: 100% A, 0% B; for a total run time of 3.5 minutes (Autosampler: 30 μL injection volume; Autosampler Wash: water/acetonitrile/2-propanol:1/1/1; with 0.2% formic acid). Mass spectroscopy was carried out using a PE SCIEX API 3000 (interface: turbo ionspray; mode: multiple reaction monitoring; method: 3.5 minute duration).
The following calculations were performed: Flux=d[(Cr×Vr)/A]/dt

The format of series [2] is in vitro ADME. The settings on record: 10 μg/ml, pH 7.4. As for the experimental part:
The concentration in the apparatus was determined after 0 and 180 minutes of incubation to mimic a skin permeation experiment. […] The experiment was done in triplicate.

For series [3] the following is noted: Formulations 1 and 2.

For `CC(C)C[C@H]1C(=O)N2CCC[C@H]2[C@]2(O)O[C@](NC(=O)[C@@H]3C=C4c5cccc6[nH]c(Br)c(c56)C[C@H]4N(C)C3)(C(C)C)C(=O)N12` [Bromocriptine], in series [1], the “Women complaining of more severe side effects” value is 10% and the “Women reporting mild side effects (nausea, dizziness, headaches, irritability)” value was 30%.
For `Cn1c(=O)c2c(ncn2C)n(C)c1=O` [Caffeine, caffeine], the “Dosing solution concentration, Mean ± S.D.” value in “in vitro” (100 μM) stood at 108.7 ± 1.5 µM. Moreover, the “Cumulative Receiver Concentration” value in “in vitro” (female, human, 0 h, 100 μM) is reported as 0* μM. In addition, the “Cumulative Receiver Concentration, Mean ± S.D.” value in the series “in vitro” (female, human, 0 h, 100 μM) amounted to 0 ± 0 µM; in the series “in vitro” (female, human, 2 h, 100 μM), 0.009 ± 0.015 µM; in the series “in vitro” (female, human, 4 h, 100 μM), 0.018 ± 0.030 µM; in “in vitro” (female, human, 8 h, 100 μM), 0.050 ± 0.075 µM; in “in vitro” (female, human, 24 h, 100 μM), 0.196 ± 0.254 µM; in “in vitro” (female, human, 48 h, 100 μM) it was 0.390 ± 0.469 µM. Moreover, the “Donor concentration, Mean ± S.D.” value in the series “in vitro” (female, human, 0 h, 100 μM) was determined as 102.7 ± 0.6 µM; in “in vitro” (female, human, 48 h, 100 μM), 102.4 ± 11.2 µM. The recovery at 48 h, 100 µM in the series “in vitro” (female, human) is 104%; in the series “in vitro” (female, human, Mean ± S.D.), 95.6 ± 8.7%.
With `C#C[C@]1(O)CC[C@H]2[C@@H]3CCC4=Cc5oncc5C[C@]4(C)[C@H]3CC[C@@]21C` [Danazol, danazol], the figures for the “Average Measured Concentration ± STD (N = 3)” value in series [2] (0 min) and in series [2] (180 min) were 8.9 ± 0.3 µg/mL and 8.5 ± 0.3 µg/mL, respectively.
With lucifer yellow, in “in vitro”, the “% Recovery, Mean ± S.D.” value came out at 85.3 ± 5.4%; the Papp stood at 0 ×10⁻⁶ cm/s; the “Papp, Mean ± S.D.” value was 0 ± 0 ×10^−6 cm/s; the “Tissue integrity marker in receiver buffer” value is reported as “below lower limit of quantification (LLOQ) in all receiver buffer”. The “Lucifer yellow permeation (membrane integrity)” value in series [3] is listed as “no permeation of Lucifer yellow detectable until after 8 or 24 hours of incubation”.
